Experimental data from US6242439A, “Azetidinone derivatives for the treatment of HCMV infections” (Boehringer Ingelheim (Canada) Ltd., priority 1998, dated 2001).
Like-named read-outs stand apart in the source and are kept apart here.

What was measured:
HCMV NO protease = HCMV NO protease (Human cytomegalovirus, UniProt P16753); assay: HCMV NO Protease Assay (inhibition of cleavage of internally quenched fluorogenic peptide substrate); format: biochemical; details: 100 nM HCMV NO protease, 5 μM substrate, 2.5 h at 30°, pH 8
Chain of HCMV NO protease (P16753 1-256): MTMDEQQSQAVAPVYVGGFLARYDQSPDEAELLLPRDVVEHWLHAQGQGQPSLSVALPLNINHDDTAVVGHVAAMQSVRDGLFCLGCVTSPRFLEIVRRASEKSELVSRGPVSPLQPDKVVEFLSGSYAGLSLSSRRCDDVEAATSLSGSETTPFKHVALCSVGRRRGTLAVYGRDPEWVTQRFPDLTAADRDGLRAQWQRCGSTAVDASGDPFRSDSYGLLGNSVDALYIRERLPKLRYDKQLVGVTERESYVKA
Description: This particular assay determines the ability of a test compound to inhibit the activity of HCMV protease. More specifically, in the assay described herein, the inhibitory activity of the test compound is evaluated on the basis of its ability to interfere with the HCMV No protease cleavage of a fluorogenic peptide substrate which in turn is based on the maturation cleavage site of the enzyme.
A. HCMV NO Protease Assay
Material & Methods: Fluorescence measurements were recorded on a Perkin-Elmer LS-50B spectrofluorimeter equipped with a plate reader accessory. UV measurements were recorded on a Thermomax® microplate reader from Molecular Devices Corporation, Menlo Park, Calif., USA.
HCMV NO protease was assayed with an internally quenched fluorogenic substrate based on the maturation cleavage site (Abz-[…](3-NO2)R--OH, kcat /KM =260 M^-1 s^-1). The fluorescence increase upon cleavage of the Ala-Ser amide bond was monitored using excitation λ=312 nm (slit 2.5 nm) and emission λ=415 nm (slit 5 nm). A protocol adaptable to a 96-well plate format was designed for the determination of IC50 values of inhibitors. […] After this period, enzymatic hydrolysis of the fluorogenic substrate in the absence of inhibitor led to about a 30% conversion. Quenching was not required before fluorescence measurement since the total scanning time by the plate reader accessory was brief relative to the duration of the reaction. The aqueous incubation buffer contained 50 mM tris(hydroxymethyl)aminomethane.HCl pH 8, 0.5M Na2 SO4, 50 mM NaCl, 0.1 mM EDTA, 1 mM tris(2-carboxyethyl)phosphine.HCl, 3% v/v DMSO and 0.05% w/v casein. The final concentrations of HCMV NO protease (expressed in terms of total monomer concentration) and substrate were 100 nM and 5 μM respectively. IC50 values were obtained through fitting of the inhibition curve to a competitive inhibition model using SAS NLIN procedure. The mode of inhibition was determined by measurements of the initial rates (in cuvettes) at various substrate concentrations in the buffer as described above. The IC50 values listed in the following tables the IC50 were obtained according to this assay.

[1] = system: HCMV (strain AD169, ATCC VR-538); assay: Plaque Reduction Assay (PRA); format: cell-based, human cytomegalovirus (HCMV); details: Hs-68 cells, approximately 50 PFU HCMV AD169, 8 days at 37°
Description: B. Plaque Reduction Assay (PRA)
Hs-68 cells (ATCC #CRL 1635) were seeded in 12-well plates at 83,000 cells/well in 1 mL of DMEM medium (Gibco Canada Inc.) supplemented with 10% fetal bovine serum (FBS, Gibco Canada Inc.). The plates were incubated for 3 days at 37° to allow the cells to reach 80-90% confluency prior to the assay.
The medium was removed from the cells by aspiration. The cells were then infected with approximately 50 PFU of HCMV (strain AD169, ATCC VR-538) in DMEM medium supplemented with 5% inactivated FBS (assay medium). (DMEM medium is commercially available and has been described by R. Dulbecco et al., Virology 1959, 8, 396.) The virus was allowed to adsorb to cells for 2 h at 37°. Following viral adsorption, the medium was removed from the wells by aspiration. The cells were then incubated with or without 1 mL of appropriate concentrations of test reagent in assay medium. Occasionally, test compounds were added 24 h post-infection. After 4 days of incubation at 37°, the medium was exchanged with fresh medium containing test compound and 4 days later the cells were fixed with 1% aqueous formaldehyde and stained with a 2% violet solution in 20% ethanol in water. Microscopic plaques were counted using a stereomicroscope. Drug effects were calculated as a percent reduction in the number of plaques in the presence of each drug concentration compared to the number observed in the absence of drug. Ganciclovir was used as a positive control in all experiments.

[2] = Cytotoxic effects, tetrazolium salt (MTT) metabolic assay; format: cell-based; details: read-out: TC50 (the source's name)
Description: In conjunction with the appropriate starting materials and intermediates, the procedures of examples 1 to 11 can be used to prepare other compounds of formula 1. Examples of compounds thus prepared are listed in the following Tables I, II and III together with mass spectrum data for the compounds, and results from the assays A and B of example 12. Cytotoxic effects noted as TC50 in the following tables were determined according to the tetrazolium salt (MTT) metabolic assay, F. Denizot and F. Lang, J. Immun. Meth., 1986, 89, 271.

[3] = Human betaherpesvirus 5, AD169, Hs68, 192 h, read-out: EC50

| Compound | IC50 (HCMV NO protease) [µM] | EC50 [1, 3] [µM] | CC50 [2] [µM] | EC50 ([1]; read-out: EC50) [µM] | EC50 [1] [µM] |
| --- | --- | --- | --- | --- | --- |
| COC(=O)c1ccc(CN(C)C(=O)N2C(=O)C[C@@H]2Cc2ccccc2)cc1 [Entry 131] | 2.5 | 140 | > 250 | – | – |
| CC(=O)Nc1ccc(CN(C)C(=O)N2C(=O)C[C@@H]2Cc2ccccc2)cc1 [Entry 132] | 17 | 150 | > 250 | – | – |
| CN(Cc1cccc([N+](=O)[O-])c1)C(=O)N1C(=O)C[C@@H]1Cc1ccccc1 [Entry 133] | 6.9 | 170 | > 250 | – | – |
| CC(C)c1ccc(CN(C)C(=O)N2C(=O)C[C@@H]2Cc2ccccc2)cc1 [Entry 134] | 6.4 | 150 | 200 | – | – |
| O=C1C[C@H](Cc2ccccc2)N1C(=O)NCc1ccncc1 [Entry 136, 4(S)-Benzyl-2-oxoazetidine-1-carboxylic acid (4-pyridinylmethyl) amide] | 13 | > 250 | > 250 | – | – |
| CN(Cc1ccc(SC(F)(F)F)cc1)C(=O)N1C(=O)C[C@@H]1Cc1ccccc1 [Entry 137] | 6.9 | > 250 | > 250 | – | – |
| CN(Cc1ccc(S(=O)(=O)C(F)(F)F)cc1)C(=O)N1C(=O)C[C@@H]1Cc1ccccc1 [Entry 139] | 4.3 | > 250 | > 250 | – | – |
| O=C1C[C@H](Cc2ccccc2)N1C(=O)NCc1cccnc1 [Entry 142] | 9.7 | > 250 | > 250 | – | – |
| CN(Cc1ccc(C#N)cc1)C(=O)N1C(=O)C[C@@H]1Cc1ccccc1 [Entry 145] | 6.1 | 120 | > 250 | – | – |
| C[C@@H]1C(=O)N(C(=O)Nc2ccccc2)[C@H]1Cc1ccccc1 [Entry 203] | 0.81 | > 250 | > 250 | – | – |
| C[C@@H]1C(=O)N(C(=O)Nc2ccncc2)[C@H]1Cc1ccccc1 [Entry 204] | 0.97 | 205 | > 250 | – | – |
| C[C@@H]1C(=O)N(C(=O)NCc2ccccc2)[C@H]1Cc1ccccc1 [Entry 207, 4(S)-Benzyl-3(S)-methyl-2-oxoazetidine-1-carboxylic acid benzylamide] | 5.3 | 140 | > 250 | – | – |
| C[C@@H]1C(=O)N(C(=O)N(C)Cc2ccccc2)[C@H]1Cc1ccccc1 [Entry 208] | 4.2 | 150 | > 250 | – | – |
| CC[C@@H](NC(=O)N1C(=O)[C@@H](SC)[C@@H]1Cc1ccccc1)c1ccccc1 [Entry 209, 4(S)-Benzyl-3(S)-(methylthio)-2-oxoazetidine-1-carboxylic acid (1(R)-phenylpropyl)amide] | 4.7 | 27 | > 250 | – | – |
| O=C1C[C@H](Cc2ccc(I)cc2)N1C(=O)NCc1ccncc1 [Entry 211] | 8.6 | > 100 | > 100 | – | – |
| CC[C@@H](NC(=O)N1C(=O)C[C@@H]1CCc1ccccc1)c1ccccc1 [Entry 212] | 4.3 | 140 | > 250 | – | – |

| Compound | IC50 (HCMV NO protease) [µM] | EC50 [1, 3] [µM] | CC50 [2] [µM] | EC50 ([1]; read-out: EC50) [µM] | EC50 [1] [µM] |
| --- | --- | --- | --- | --- | --- |
| CC[C@@H](NC(=O)N1C(=O)C[C@@H]1C(C)C)c1ccccc1 [Entry 213] | 5.9 | 210 | > 250 | – | – |
| CC[C@H]1CC(=O)N1C(=O)N[C@H](CC)c1ccccc1 [Entry 214] | 7.6 | 180 | > 250 | – | – |
| CC[C@@H](C)[C@H]1CC(=O)N1C(=O)N[C@H](CC)c1ccccc1 [Entry 216] | 4.4 | 110 | > 250 | – | – |
| CC[C@@H](NC(=O)N1C(=O)C[C@@H]1[C@@H](C)CC)c1ccccc1 [Entry 217] | 11 | 85 | > 250 | – | – |
| CN(Cc1ccc(C(F)(F)F)cc1)C(=O)N1C(=O)C[C@@H]1Cc1nccs1 [Entry 218, 4(R)-(2-Thiazolylmethyl)-2-oxoazetidine-1-carboxylic acid N-methyl-N-{{(4-trifluoromethyl)phenyl}methyl}amide] | 5.5 | – | 178 | 78 | – |
| CN(Cc1ccc(C(F)(F)F)cc1)C(=O)N1C(=O)C[C@@H]1Cc1nc2ccccc2s1 [Entry 219] | 0.88 | 110 | > 250 | – | – |
| CN(Cc1ccc(C(F)(F)F)cc1)C(=O)N1C(=O)C[C@@H]1Cc1ccco1 [Entry 221] | 7.1 | 59 | > 100 | – | – |
| CC[C@@H](NC(=O)N1C(=O)C[C@@H]1Cc1nnn(C)n1)c1ccccc1 [Entry 222] | 5 | 125 | > 148 | – | – |
| CN(Cc1ccc([N+](=O)[O-])cc1)C(=O)N1C(=O)C[C@@H]1Cc1nnn(C)n1 [Entry 224] | 2.7 | 100 | > 133 | – | – |
| CN(Cc1ccc([N+](=O)[O-])cc1)C(=O)N1C(=O)C[C@@H]1Cc1nc2ccccc2s1 [Entry 225] | 0.7 | 30 | > 50 | – | – |
| CN(Cc1ccc([N+](=O)[O-])cc1)C(=O)N1C(=O)C[C@@H]1Cc1cccs1 [Entry 226] | 1.3 | 70 | > 79 | – | – |
| CN(Cc1ccc([N+](=O)[O-])cc1)C(=O)N1C(=O)C[C@@H]1Cc1nccs1 [Entry 227] | 2.5 | > 29 | > 29 | – | – |
| CN(Cc1ccc(C(F)(F)F)cc1)C(=O)N1C(=O)C[C@@H]1Cc1cccs1 [Entry 228] | 4.5 | > 16 | > 16 | – | – |
| CN(Cc1ccc([N+](=O)[O-])cc1)C(=O)N1C(=O)C[C@@H]1Cc1ccco1 [Entry 229] | 3.1 | 143 | > 261 | – | – |
| CN(Cc1ccc(C(F)(F)F)cc1)C(=O)N1C(=O)C[C@@H]1Cc1nccs1 [Entry 231] | 2.7 | – | > 25 | – | 11 |
